Drawing on US4985417A, “Treatment of glaucoma” (priority 1989, dated 1991), this text covers IC50 and water solubility for three compounds.

The target of data set [1] is carbonic anhydrase. The experiment in a line: carbonic anhydrase inhibition (concentration for 50% inhibition). The format is biochemical. The note with it: carbonic anhydrase inhibitory properties; read-out: Conc. for 50% Inhibition.
For data set [2] the following is noted: cited from earlier work.

Where a name gives a salt, the structure may show the parent alone.

As to `NS(=O)(=O)c1ccc(NC(=O)[C@@H]2CCCN2)cc1` [4-(L-prolylamino)benzenesulfonamide hydrochloride], the IC50 in data set [1] amounted to 94.9 nM.

`CC(=O)Nc1nnc(S(N)(=O)=O)s1` [Acetazolamide, acetazolamide]: in data set [2], the water solubility entry was “about 0.01 % w/v”.

As for `CC(=O)N1CCC[C@H]1C(=O)Nc1ccc(S(N)(=O)=O)cc1` [4-(N-acetyl-L-prolyl-amino)benzenesulfonamide], in data set [1], the IC50 is 67.5 nM.
